According to patent US20070015823A1, “Ambruticin VS compounds” (priority 2004, published 2007):
In brackets after ≈: the same amount, converted by molar mass. Where two headings read alike, the source gives them in different places.

How the values were obtained:
A. fumigatus ATCC 204305 = assay: Broth microdilution antifungal susceptibility, NCCLS M38-A; type: cell-based, Aspergillus fumigatus; settings: minimal concentration inhibiting >95% growth, average of at least two assays (except I-l and I-x)
Cryptococcus neoformans = assay: as above; settings: for MIC: Cryptococcus neoformans
Fusarium solani = assay: as above; type: cell-based; settings: strain 96-1, 50% growth inhibition, range = minimum and maximum of multiple assays
S. apiospermum = assay: as above; type: cell-based, Scedosporium apiospermum; settings: for MIC: Scedosporium apiospermum, 50% growth inhibition, range = minimum and maximum of multiple assays
A. flavus ATCC 204304 = assay: as above; type: cell-based, Aspergillus flavus; settings: minimal concentration inhibiting >95% growth, average of at least two assays (except I-l and I-x)
Blastomyces dermatitidis = assay: as above; type: cell-based; settings: for MIC: Blastomyces dermatitidis
C. posadasii = assay: microbe, parasite or virus in culture; type: cell-based, Coccidioides posadasii; settings: for MIC: Coccidioides posadasii
C. immitis = assay: microbe, parasite or virus in culture; type: cell-based, Coccidioides immitis; settings: for MIC: Coccidioides immitis
Trichophyton rubrum = assay: Dermatophyte broth microdilution, NCCLS M38-A; type: cell-based
[1] = system: Trichophyton mentagrophytes; assay: Dermatophyte broth microdilution, NCCLS M38-A; type: cell-based
Microsporum gypseum = assay: Dermatophyte broth microdilution, NCCLS M38-A; type: cell-based
Microsporum canis = assay: Dermatophyte broth microdilution, NCCLS M38-A; type: cell-based
Candida albicans = settings: 50% growth inhibition, range = minimum and maximum of multiple assays
Histoplasma capsulatum = type: cell-based

Work on `CC[C@H]1O[C@@H](C(C)C[C@H](C)/C=C/[C@H]2[C@@H](C)[C@@H]2/C=C/[C@@H]2O[C@H](CC(=O)O)CC(O)[C@H]2O)CC=C1C` (stereo partly drawn) [Ambruticin S, (5S,6R)-5,6-dihydroxypoly-angioic acid, reference compound] yielded an MIC (A. fumigatus ATCC 204305; Aspergillus fumigatus, ATCC204305, read-out: MIC0 A. fumigatus ATCC 204305) of 29.3 µg/mL (≈ 61.5 µM), an MIC (Cryptococcus neoformans; read-out: MIC C. neoformans 97-14) of 8 µg/mL (≈ 16.8 µM) and an MIC (Cryptococcus neoformans; read-out: MIC C. neoformans 11239) of 4 µg/mL (≈ 8.39 µM). For the same molecule, the MIC (Cryptococcus neoformans; read-out: MIC C. neoformans 11240) was 16 µg/mL (≈ 33.6 µM), the MIC (Fusarium solani; Fusarium solani, read-out: MIC F. solani 96-1) was > 32 µg/mL and the MIC (S. apiospermum; strain 94-54, read-out: MIC S. apiospermum 94-54) was > 32 µg/mL. The MIC (S. apiospermum; strain 98-38, read-out: MIC S. apiospermum 98-38) was > 32 µg/mL, the MIC (S. apiospermum; strain 98-89, read-out: MIC S. apiospermum 98-89) was 4 µg/mL (≈ 8.39 µM) and the MIC (A. flavus ATCC 204304; Aspergillus flavus, ATCC204304, read-out: MIC0 A. flavus ATCC 204304) was 28.4 µg/mL (≈ 59.7 µM). It also gave an MIC (Blastomyces dermatitidis; read-out: MIC0 Blastomyces dermatitidis R-35629) of 0.125 µg/mL (≈ 0.262 µM), an MIC (Blastomyces dermatitidis; strain 04-2167, >95% growth inhibition, read-out: MIC0 Blastomyces dermatitidis 04-2167) of 0.125 µg/mL (≈ 0.262 µM) and an MIC (Blastomyces dermatitidis; strain 04-2508, >95% growth inhibition, read-out: MIC0 Blastomyces dermatitidis 04-2508) of 0.25 µg/mL (≈ 0.524 µM). It also gave an MIC (Blastomyces dermatitidis; strain 04-2915, >95% growth inhibition, read-out: MIC0 Blastomyces dermatitidis 04-2915) of 1 µg/mL (≈ 2.1 µM), an MIC (Blastomyces dermatitidis; strain 05-106, >95% growth inhibition, read-out: MIC0 Blastomyces dermatitidis 05-106) of 0.5 µg/mL (≈ 1.05 µM) and an MIC (Blastomyces dermatitidis; strain 05-186, >95% growth inhibition, read-out: MIC0 Blastomyces dermatitidis 05-186) of 0.125 µg/mL (≈ 0.262 µM). The MIC (Blastomyces dermatitidis; strain 05-1391, >95% growth inhibition, read-out: MIC0 Blastomyces dermatitidis 05-1391) was 0.06 µg/mL (≈ 0.126 µM), the MIC (Blastomyces dermatitidis; strain 05-1707, >95% growth inhibition, read-out: MIC0 Blastomyces dermatitidis 05-1707) was ≤ 0.015 µg/mL and the MIC (Blastomyces dermatitidis; strain 05-1820, >95% growth inhibition, read-out: MIC0 Blastomyces dermatitidis 05-1820) was 0.125 µg/mL (≈ 0.262 µM). The MIC (Blastomyces dermatitidis; strain 05-1829, >95% growth inhibition, read-out: MIC0 Blastomyces dermatitidis 05-1829) was 0.25 µg/mL (≈ 0.524 µM), the MIC (Blastomyces dermatitidis; strain 05-2020, >95% growth inhibition, read-out: MIC0 Blastomyces dermatitidis 05-2020) was 0.06 µg/mL (≈ 0.126 µM) and the MIC (Blastomyces dermatitidis; strain R-3529, >95% growth inhibition, read-out: MIC0 Blastomyces dermatitidis R-3529) was 0.06 µg/mL (≈ 0.126 µM). The MIC (C. posadasii; read-out: MIC C. posadasii C735) was 4 µg/mL (≈ 8.39 µM), the MIC (C. posadasii; read-out: MIC C. posadasii RMSCC 2127) was 2 µg/mL (≈ 4.2 µM) and the MIC (C. posadasii; read-out: MIC C. posadasii Silveria) was 2 µg/mL (≈ 4.2 µM). The MIC (C. immitis; read-out: MIC C. immitis RMS 2281) was 2 µg/mL (≈ 4.2 µM), the MIC (C. immitis; read-out: MIC C. immitis RS) was 2 µg/mL (≈ 4.2 µM) and the MIC (C. immitis; read-out: MIC C. immitis S46) was 4 µg/mL (≈ 8.39 µM).
For `CC[C@H]1O[C@@H](/C(C)=C/[C@H](C)/C=C/[C@H]2[C@@H](C)[C@@H]2/C=C/[C@@H]2O[C@H](CC(=O)O)C[C@H](N(C)C(C)C)[C@H]2O)CC=C1C` [I-v, (5S,6R)-5-(N-isoproyl-methylamino)-6-hydroxypolyangioic acid], the “MIC0 Tr” value (Trichophyton rubrum) was 5.03 µg/mL, the “MIC0 Tm” value [1] was 4 µg/mL and the “MIC0 A. fumigatus ATCC 204305” value (A. fumigatus ATCC 204305) was 1.32 µg/mL. The “MIC C. neoformans 97-14” value (Cryptococcus neoformans; strain 97-14, 50% growth inhibition, range = minimum and maximum of multiple assays) was 0.5 µg/mL (≈ 0.944 µM), the “MIC C. neoformans 11239” value (Cryptococcus neoformans; strain 11239, 50% growth inhibition, range = minimum and maximum of multiple assays) was 0.25 µg/mL (≈ 0.472 µM) and the “MIC C. neoformans 11240” value (Cryptococcus neoformans; strain 11240, 50% growth inhibition, range = minimum and maximum of multiple assays) was 0.25 to 0.5 µg/mL. For the same molecule, the “MIC0 Mg” value (Microsporum gypseum) was 2 µg/mL, the “MIC0 Mc” value (Microsporum canis) was 2 µg/mL and the “MIC F. solani 96-1” value (Fusarium solani) was >16 µg/mL. The “MIC S. apiospermum 94-54” value (S. apiospermum) was >16 µg/mL, the “MIC S. apiospermum 98-38” value (S. apiospermum) was >16 µg/mL and the “MIC S. apiospermum 98-89” value (S. apiospermum) was 0.25 µg/mL (≈ 0.472 µM). For the same molecule, the “MIC C. albicans 24433” value (Candida albicans; strain 24433) was >32 µg/mL, the “MIC C. albicans 90028” value (Candida albicans; strain 90028) was >32 µg/mL and the “MIC0 A. flavus ATCC 204304” value (A. flavus ATCC 204304) was 1.1 µg/mL. The “MIC H. capsulatum G217B” value (Histoplasma capsulatum) was <0.19 µg/mL, the “MIC H. capsulatum GS20” value (Histoplasma capsulatum) was <0.19 µg/mL and the “MIC0 Blastomyces dermatitidis 04-2167” value (Blastomyces dermatitidis) was 0.06 µg/mL. For the same molecule, the “MIC0 Blastomyces dermatitidis 04-2508” value (Blastomyces dermatitidis) was 0.06 µg/mL, the “MIC0 Blastomyces dermatitidis 04-2915” value (Blastomyces dermatitidis) was 0.125 µg/mL and the “MIC0 Blastomyces dermatitidis 05-106” value (Blastomyces dermatitidis) was 0.03 µg/mL. The “MIC0 Blastomyces dermatitidis 05-186” value (Blastomyces dermatitidis) was 0.06 µg/mL, the “MIC0 Blastomyces dermatitidis 05-1391” value (Blastomyces dermatitidis) was 0.03 µg/mL and the “MIC0 Blastomyces dermatitidis 05-1707” value (Blastomyces dermatitidis) was “≦0.015 μg/mL”. For the same molecule, the “MIC0 Blastomyces dermatitidis 05-1820” value (Blastomyces dermatitidis) was 0.06 µg/mL, the “MIC0 Blastomyces dermatitidis 05-1829” value (Blastomyces dermatitidis) was 0.06 µg/mL and the “MIC0 Blastomyces dermatitidis 05-2020” value (Blastomyces dermatitidis) was 0.06 µg/mL. The “MIC0 Blastomyces dermatitidis R-3529” value (Blastomyces dermatitidis) was 0.063 µg/mL, the “MIC0 Blastomyces dermatitidis R-35629” value (Blastomyces dermatitidis) was 0.03 µg/mL and the “MIC B. dermatitidis Gu” value (Blastomyces dermatitidis) was 12.5 µg/mL (≈ 23.6 µM). For the same molecule, the “MIC B. dermatitidis Kr” value (Blastomyces dermatitidis) was >12.5 µg/mL, the “MIC B. dermatitidis V” value (Blastomyces dermatitidis) was 12.5 µg/mL (≈ 23.6 µM) and the “MIC C. posadasii C735” value (C. posadasii) was 0.25 µg/mL (≈ 0.472 µM). For the same molecule, the “MIC C. posadasii RMSCC 2127” value (C. posadasii) was 0.125 µg/mL (≈ 0.236 µM), the “MIC C. posadasii Silveria” value (C. posadasii) was 0.25 µg/mL (≈ 0.472 µM) and the “MIC C. immitis RMS 2281” value (C. immitis) was 0.125 µg/mL (≈ 0.236 µM). The “MIC C. immitis RS” value (C. immitis) was 0.25 µg/mL (≈ 0.472 µM) and the “MIC C. immitis S46” value (C. immitis) was 0.125 µg/mL (≈ 0.236 µM).
